Results from patent publication US20220218695A1, “COMBINATION OF AN ALPHA2-ADRENOCEPTOR SUBTYPE C (ALPHA-2C) ANTAGONISTS WITH A TASK1/3 CHANNEL BLOCKER FOR THE TREATMENT OF SLEEP APNEA” (Bayer Aktiengesellschaft, priority 2019, published 2022).

Test system: upper airway collapsibility in anaesthetized, spontaneously breathing pigs
Assay: pig model of obstructive sleep apnea (OSA): upper airway collapsibility under negative pressure
Format: in vivo, German Landrace pigs
Source text: The therapeutic potential of the combination of an α2-Adrenoceptor subtype C (alpha-2C) antagonists with a TASK1/3 channel blocker according to the present invention in sleep apnea can be assessed preclinically in a pig model of obstructive sleep apnea (OSA).
Using negative pressure, it is possible to induce collapse and thus obstruction of the upper respiratory tract in anaesthetized, spontaneously breathing pigs (Wirth K. J. et al., Sleep 36(5)(2013) pp. 699-708).
German Landrace pigs are used for the model. The pigs are anaesthetized and tracheotomized. Two tracheal cannulas are inserted into the trachea, one into the rostral part and the other into the caudal part of the trachea. Using a connection piece, the rostral cannula is connected to a tube to the negative pressure device and to the distal tracheal cannula. The distal tracheal cannula is additionally connected to a tube with an open end to atmosphere via a connection piece that served for free tracheal breathing, circumventing the upper airway. By appropriate opening and clamping of those tubes breathing can be switched from nasal breathing to breathing through the caudal tracheal cannula, circumventing the upper airway, and the (isolated) upper airway can be connected to the negative pressure device, causing airflow in the inspiratory direction.
At certain points in time, the collapsibility of the upper respiratory tract is tested by having the pig breathe via the caudal cannula and applying negative pressures of −50, −100 and −150 cm water head (cm H2O) to the upper respiratory tract. This causes the upper respiratory tract to collapse, which manifests itself in an interruption of the airflow and a pressure drop in the tube system. This test is conducted prior to the administration of the test substance and at certain intervals after the administration of the test substance. An appropriately effective test substance can prevent this collapse of the respiratory tract in the inspiratory phase.

[1] = 0 min (time point of intranasal administration of 0.3 μg; baseline), TASK1/3 blocker alone
[2] = 10 min after intranasal administration of 0.3 μg, TASK1/3 blocker alone
[3] = 30 min after intranasal administration of 0.3 μg, TASK1/3 blocker alone
[4] = 60 min after intranasal administration of 0.3 μg, TASK1/3 blocker alone
[5] = alpha-2C antagonist alone, 90 min after bolus injection […] and start of infusion 0.005 μg/kg/h
[6] = 0 min (time point of i.v. bolus […] and start of infusion 0.005 μg/kg/h; baseline)
[7] = 30 min after i.v. bolus […] and start of infusion 0.005 μg/kg/h, alpha-2C antagonist alone
[8] = 60 min after i.v. bolus […] and start of infusion 0.005 μg/kg/h, alpha-2C antagonist alone
[9] = 90 min after i.v. bolus […] and start of infusion 0.005 μg/kg/h, time point of nasal application of TASK1/3 channel blocker

COc1cccc(C(=O)N2CCN(Cc3c(-c4ccc(Cl)cc4)nc4ccccn34)CC2)n1 [(4-{[2-(4-Chlorophenyl)imidazo[1,2-a]pyridin-3-yl]methyl}piperazin-1-yl)(6-methoxypyridin-2-yl)methanone]
0%: Percent pigs without collaps −50 cm H2O, % [1] | Percent pigs without collaps −50 cm H2O, % [2] | Percent pigs without collaps −50 cm H2O, % [3] | Percent pigs without collaps −50 cm H2O, % [4] | Percent pigs without collaps −100 cm H2O, % [1] | Percent pigs without collaps −100 cm H2O, % [2] | Percent pigs without collaps −100 cm H2O, % [3] | Percent pigs without collaps −100 cm H2O, % [4] | Percent pigs without collaps −150 cm H2O, % [1] | Percent pigs without collaps −150 cm H2O, % [2] | Percent pigs without collaps −150 cm H2O, % [3] | Percent pigs without collaps −150 cm H2O, % [4]
non effective dose: effectiveness of dose on upper airway collapsibility (TASK1/TASK3 channel blocker alone, 0.3 μg intranasal)

COC[C@@]1(C)CCCN2CCc3c(oc4ccccc34)[C@@H]21 [(1S,12bS)-1-(methoxymethyl)-1-methyl-1,3,4,6,7,12b-hexahydro-2H-[1]benzofuro[2,3-a]quinolizine]
non effective dose: effectiveness of dose on upper airway collapsibility (alpha-2C antagonist alone, i.v. bolus […] + infusion 0.005 μg/kg/h)
induced: upper airway collapsibility at negative pressures of −100 and −150 cm head (cm H2O) [5]
100%: Percent pigs without collaps −50 cm H2O, % [8] | Percent pigs without collaps −50 cm H2O, % [9]
only inhibited: upper airway collapsibility at negative pressures of −50 cm head (cm H2O) [5]
0%: Percent pigs without collaps −50 cm H2O, % [6] | Percent pigs without collaps −50 cm H2O, % [7] | Percent pigs without collaps −100 cm H2O, % [6] | Percent pigs without collaps −100 cm H2O, % [7] | Percent pigs without collaps −100 cm H2O, % [8] | Percent pigs without collaps −100 cm H2O, % [9] | Percent pigs without collaps −150 cm H2O, % [6] | Percent pigs without collaps −150 cm H2O, % [7] | Percent pigs without collaps −150 cm H2O, % [8] | Percent pigs without collaps −150 cm H2O, % [9]
at no time point: inhibited upper airway collapsibility at all negative pressures of −50, −100 and −150 cm head (cm H2O) (alpha-2C antagonist alone, i.v. bolus […] followed by i.v. infusion 0.005 μg/kg/h for four hours)
